Measurements as given in patent US20250295627A1 (Leibniz-Institut Fuer Neurobiologie, priority 2022, published 2025).

Experiments:
GluA1 AMPA-receptors = assay: Synaptic surface expression of GluA1 AMPA-receptors in hippocampal neurons; format: cell-based, rat; conditions: 5 μM Nitarsone with 500 nM Aβ1-42, 48 h
Method: Hippocampal and cortical cultures were prepared from Wistar rat embryos (E18) of mixed sex as described previously (Spilker et al., 2016). Briefly, dissected were digested for 15 min with trypsin at 37° C. Neurons were plated on plastic 12-well dishes (Greiner) on glass coverslips coated with poly-L-lysine (Sigma-Aldrich) at a density of 60 000 cells/well in DMEM medium (Gibco, Thermo Fisher Scientific) supplemented with 10% FCS, 1× penicillin/streptomycin, and 2 mM glutamine. After 1 h incubation (at the 37° C., 5% CO2, 95% humidity) cells were kept in BrainPhys medium supplemented with 1% SM1 (Stemmcell Technologies), 0.5 mM Glutamine (Gibco) at 37° C., 5% CO2 and 95% humidity. […]
For quantitation of nuclear staining intensity (pCREB or CREB) somatic regions were sequentially scanned using the 63× objective (Leica) in both: Leica TCS SP8-STED and Leica TCS SP5 systems. […] Unprocessed images were analysed using Fiji/ImageJ software (Schindelin et al., 2012). For visualization of the quantified channel a fire look-up table (LUT) was used. Synaptic density was quantified in secondary dendrites using Fiji/ImageJ (Schindelin et al., 2012). […] Intensity of the GluA1 channel was measured in ROIs defined by a Shank3 mask as a readout for surface AMPAR expression.

pCREB = pCREB in motor neurons differentiated from hiPSC (ALS model); format: cell-based, human; conditions: hiPSC-derived motor neurons, treated at day in vitro 56

`O=[N+]([O-])c1ccc([As](=O)(O)O)cc1` [Nitarsone, (4-nitrophenyl) arsonic acid] was tested, and the “downscaling of synaptic surface expression of GluA1 AMPA-receptors” value (GluA1 AMPA-receptors) was “significantly attenuated” and the “impairment of CREB function” value (pCREB) was “rescues the impairment of CREB function”.
